Values quoted from earlier work in article PMC4027949 (ACS Chemical Biology, 2014).

Assays:
P38 = settings: read-out: IC50 P38; Ibrutinib comparison values
PI3K = settings: read-out: IC50 PI3K; Ibrutinib comparison values
PDGFRa = PDGFRa (Homo sapiens, UniProt P16234); settings: read-out: IC50 PDGFRa; Ibrutinib comparison values
PDGFRa, sequence (P16234 24-1089, species assumed): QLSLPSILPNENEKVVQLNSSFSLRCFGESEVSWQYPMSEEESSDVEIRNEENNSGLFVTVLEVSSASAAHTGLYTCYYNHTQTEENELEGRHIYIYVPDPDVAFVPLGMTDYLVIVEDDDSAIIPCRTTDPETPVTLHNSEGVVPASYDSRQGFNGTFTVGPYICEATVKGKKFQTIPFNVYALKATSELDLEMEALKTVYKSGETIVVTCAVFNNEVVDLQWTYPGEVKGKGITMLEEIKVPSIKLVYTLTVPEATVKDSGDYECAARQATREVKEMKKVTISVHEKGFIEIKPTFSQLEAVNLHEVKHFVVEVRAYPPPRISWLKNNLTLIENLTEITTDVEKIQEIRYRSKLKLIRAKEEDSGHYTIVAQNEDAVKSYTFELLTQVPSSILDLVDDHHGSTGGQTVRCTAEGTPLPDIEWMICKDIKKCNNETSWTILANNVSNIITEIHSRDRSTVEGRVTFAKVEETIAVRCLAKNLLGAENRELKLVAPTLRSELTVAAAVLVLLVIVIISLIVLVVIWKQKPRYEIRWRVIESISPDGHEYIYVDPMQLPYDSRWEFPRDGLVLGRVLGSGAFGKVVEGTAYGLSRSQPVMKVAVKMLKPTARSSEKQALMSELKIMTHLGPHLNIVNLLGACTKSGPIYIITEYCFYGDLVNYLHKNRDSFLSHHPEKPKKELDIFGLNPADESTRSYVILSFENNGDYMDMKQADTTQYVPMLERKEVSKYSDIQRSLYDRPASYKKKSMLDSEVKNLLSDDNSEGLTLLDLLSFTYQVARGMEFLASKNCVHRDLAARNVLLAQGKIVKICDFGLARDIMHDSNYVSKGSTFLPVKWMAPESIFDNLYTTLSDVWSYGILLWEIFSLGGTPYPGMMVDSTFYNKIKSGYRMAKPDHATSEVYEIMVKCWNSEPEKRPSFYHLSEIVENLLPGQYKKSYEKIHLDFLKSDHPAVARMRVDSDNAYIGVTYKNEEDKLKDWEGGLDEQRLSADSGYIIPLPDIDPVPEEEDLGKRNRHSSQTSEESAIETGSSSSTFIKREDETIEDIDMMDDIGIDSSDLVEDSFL

C=CC(=O)N1CCC[C@@H](n2nc(-c3ccc(Oc4ccccc4)cc3)c3c(N)ncnc32)C1 [Ibrutinib]
IC50 (P38): > 10 µM | IC50 (PI3K): > 10 µM | IC50 (PDGFRa): 0.718 µM
